# Legend:
# Experiment in all cases: relative viability (nuclei count vs DMSO), 5 days (fraction); higher = more cells survive
# Serdemetan + Bortezomib = compound: c1ccc2c(CCNc3ccc(Nc4ccncc4)cc3)c[nH]c2c1 [Serdemetan] + CC(C)C[C@H](NC(=O)[C@H](Cc1ccccc1)NC(=O)c1cnccn1)B(O)O [Bortezomib] (partner 0.002 µM)
# In short: (§1)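 Nuclei were stained with Hoechst during a one-step fixation (final 0.05% Triton X-100, 1% formaldehyde, 1 ug/ml Hoechst) carried out 5 days after dosing, then counted on 4× images. The cells, lung cancer lines in 1536-well plates, had been dosed by pin tool the day after seeding with one drug alone or a fixed anchor-drug dose plus five library-drug doses (not always all listed) in √10 steps. Relative viability is the nuclei count in treated wells divided by that in vehicle wells, and each value is the median of duplicate plates.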
# Selisistat + Dasatinib = compound: C1CC(C2=C(C1)C3=C(N2)C=CC(=C3)Cl)C(=O)N [Selisistat] + Cc1nc(Nc2ncc(C(=O)Nc3c(C)cccc3Cl)s2)cc(N2CCN(CCO)CC2)n1 [Dasatinib] (partner 0.075 µM)
# In short: as §1
# Serdemetan + Pemetrexed = compound: c1ccc2c(CCNc3ccc(Nc4ccncc4)cc3)c[nH]c2c1 [Serdemetan] + Nc1nc2[nH]cc(CCc3ccc(C(=O)N[C@@H](CCC(=O)O)C(=O)O)cc3)c2c(=O)[nH]1 [Pemetrexed] (partner 0.2 µM)
# In short: as §1
# Serdemetan + Tozasertib = compound: c1ccc2c(CCNc3ccc(Nc4ccncc4)cc3)c[nH]c2c1 [Serdemetan] + Cc1cc(Nc2cc(N3CCN(C)CC3)nc(Sc3ccc(NC(=O)C4CC4)cc3)n2)n[nH]1 [Tozasertib] (partner 0.1 µM)
# In short: as §1
Cell Line,relative viability (Serdemetan + Bortezomib; first compound 0.04 µM),relative viability (Serdemetan + Bortezomib; first compound 0.1265 µM),relative viability (Serdemetan + Bortezomib; first compound 1.265 µM),relative viability (Serdemetan + Bortezomib; first compound 4 µM),relative viability (Selisistat + Dasatinib; first compound 0.4 µM),relative viability (Selisistat + Dasatinib; first compound 1.265 µM),relative viability (Selisistat + Dasatinib; first compound 4 µM),relative viability (Selisistat + Dasatinib; first compound 12.65 µM),relative viability (Selisistat + Dasatinib; first compound 40 µM),relative viability (Serdemetan + Pemetrexed; first compound 0.04 µM),relative viability (Serdemetan + Pemetrexed; first compound 0.1265 µM),relative viability (Serdemetan + Pemetrexed; first compound 1.265 µM),relative viability (Serdemetan + Pemetrexed; first compound 4 µM),relative viability (Serdemetan + Tozasertib; first compound 0.04 µM),relative viability (Serdemetan + Tozasertib; first compound 0.1265 µM),relative viability (Serdemetan + Tozasertib; first compound 1.265 µM),relative viability (Serdemetan + Tozasertib; first compound 4 µM),relative viability (Serdemetan + Bortezomib; first compound 0.4 µM),relative viability (Serdemetan + Pemetrexed; first compound 0.4 µM),relative viability (Serdemetan + Tozasertib; first compound 0.4 µM)
HCC-827,1.05,0.959,0.954,1.01,0.393,0.38,0.306,0.421,0.301,0.218,0.191,0.2,0.227,0.406,0.393,0.297,0.308,,,
HOP-62,1.09,0.928,0.47,0.871,0.677,0.626,0.507,0.642,0.664,0.293,0.368,0.333,0.365,0.421,0.323,0.328,0.245,0.476,0.307,0.322
IA-LM,0.846,0.854,0.535,0.324,,,,,,,,,,,,,,0.784,,
LC-2-ad,0.921,0.927,,0.912,0.611,,0.456,0.459,0.569,0.255,0.231,0.255,0.267,0.397,0.487,0.461,0.385,1.04,0.269,0.459
LCLC-97TM1,0.546,0.517,,0.307,0.8,0.887,,0.889,0.944,0.147,0.196,0.153,0.197,0.256,0.202,,0.169,0.809,0.188,0.235
LCLC-103H,1.12,1.05,0.736,1.2,0.527,0.475,0.456,0.507,0.548,0.447,0.49,0.386,0.454,0.611,0.605,0.448,0.402,0.96,0.481,0.502
LK-2,,,,,0.211,0.307,0.322,0.266,0.287,0.261,0.206,0.265,0.241,0.171,0.176,0.207,0.168,,0.225,0.194
NCI-H358,,,,,0.201,0.158,0.114,0.235,0.226,0.173,0.155,0.148,0.163,0.0807,0.105,0.102,0.0954,,0.18,0.111
NCI-H522,,,,,0.736,0.644,0.784,0.803,0.759,0.971,0.857,0.933,0.98,0.554,0.575,,0.497,,1.04,0.44
NCI-H727,0.923,1.01,0.557,0.431,0.468,0.419,,0.454,0.498,,,,,0.695,0.542,0.585,0.518,1.03,,0.509
NCI-H1299,0.985,1.01,0.887,0.804,,,,,,,,,,,,,,0.989,,
NCI-H1395,,,,,0.468,0.426,0.407,0.402,0.389,0.853,0.925,0.705,0.518,0.736,0.742,0.751,0.513,,0.886,0.838
NCI-H1563,0.723,0.925,0.742,0.648,0.496,0.443,0.319,0.438,0.549,0.827,0.641,0.393,0.602,,,,,0.692,0.627,
NCI-H1623,,,,,0.518,0.587,0.41,0.551,0.57,,,,,0.421,0.517,0.385,0.399,,,0.349
NCI-H1648,,,,,,,,,,,0.714,0.554,0.476,,0.46,0.206,0.299,,0.624,0.38
NCI-H1703,0.345,0.313,0.362,0.262,,,,,,,,,,,,,,0.396,,
NCI-H1792,0.953,0.958,0.347,0.726,0.806,0.805,,0.677,0.498,0.74,0.88,0.38,0.404,,,,,0.936,0.761,
NCI-H1793,,,,,0.359,0.394,,0.426,0.344,0.864,0.831,0.419,0.431,0.332,0.298,0.255,0.186,,0.616,0.268
NCI-H1944,,,,,0.24,0.205,,0.22,0.2,0.581,0.599,0.469,0.476,0.249,0.278,0.158,0.165,,0.741,0.234
NCI-H2170,,,,,0.468,0.47,0.521,0.563,0.63,0.231,0.288,0.266,0.284,0.662,0.732,0.276,0.685,,0.248,0.7
NCI-H2342,,,,,0.312,0.339,0.297,0.33,0.363,0.789,0.752,0.516,0.641,0.607,0.553,0.493,0.408,,0.835,0.605
SK-MES-1,,,,,0.451,0.294,0.293,0.346,0.264,0.938,0.89,0.772,0.841,0.871,0.859,0.747,0.865,,0.824,0.851
SW 900,,,,,0.664,0.409,0.641,0.496,0.791,0.461,0.51,0.324,0.41,0.494,0.413,0.329,0.359,,0.485,0.441
